Tested on: QT interval
Test: QT interval prolongation (ECG, class III action) in anesthetized guinea pigs
Assay type: in vivo, Pirbright white guinea pigs
Conditions: Cavia porcellus; guinea pigs, urethane anesthesia, intravenous; dose for 20% QT prolongation calculated from log dose (mg/kg) vs relative QT prolongation; read-out: Prolongation of the QT interval ED20%
Description: The action of the novel substances has been tested as follows:
The experimental animals used were male and female Pirbright white guinea pigs weighing 300-500 g. 1.5 g/kg urethane i.p. were used for anesthesia. The substances were administered intravenously. The extremity lead II was recorded to measure the ECG conduction times and the heart rate. The measured variables were the QT and PQ intervals and the heart rate. 4-6 animals were used for each dose. The criterion for a class III action was an increase in the QT interval compared with the values before administration of the substance. A PQ increase and a large decrease in the heart rate were used as exclusion criteria. The ED20% is calculated from the linear relation between log dose (mg/kg) of the substance and the relative prolongation of the QT interval (Δ%).

SMILES: CC(C)NC[C@@H](O)c1ccc(NS(C)(=O)=O)cc1 [d-sotalol, reference compound]
- ED (20%): 3.6 mg/kg

Reference: patent US5214047A, “Tetracyclic quinazoline derivatives, effective as antiarrythmic agents” (priority 1987, dated 1993)
